Results taken from PMC2810320 (Journal of the American Chemical Society, 2010).

Legend:
[1] = biological target: T1, porcine bc1 complex (Sus scrofa, UniProt P24964); assay: Succinate-cytochrome c reductase; assay type: biochemical; conditions: for ΔG ΔGexp.: ΔGexp. = −RTlnKi
[2] = biological target: T1, porcine bc1 complex; assay: Ubiquinol-cytochrome c reductase; assay type: biochemical
[3] = DBH2 and cytochrome c as substrates, pH 6.5, 750 µM lauryl maltoside

T1 sequence (P24964 whole entry, one chain of several): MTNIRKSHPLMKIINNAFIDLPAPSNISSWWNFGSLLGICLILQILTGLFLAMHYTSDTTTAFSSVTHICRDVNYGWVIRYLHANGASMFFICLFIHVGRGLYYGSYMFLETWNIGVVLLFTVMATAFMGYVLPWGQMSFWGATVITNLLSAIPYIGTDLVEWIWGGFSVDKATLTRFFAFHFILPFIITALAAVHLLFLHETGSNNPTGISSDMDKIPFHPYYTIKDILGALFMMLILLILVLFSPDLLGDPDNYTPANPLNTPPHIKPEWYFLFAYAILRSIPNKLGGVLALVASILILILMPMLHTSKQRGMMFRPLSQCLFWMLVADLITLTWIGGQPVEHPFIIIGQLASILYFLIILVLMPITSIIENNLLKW

SMILES: CO/C=C(/C(=O)OC)c1ccccc1COc1cc(-c2ccccc2OCc2ccccc2)nn1C [Compound 6c]
- ΔG ΔGexp. [1]: -10.79 kcal/mol

SMILES: COC(=O)N(OC)c1ccccc1COc1ccn(-c2ccc(Cl)cc2)n1 [PY, pyraclostrobin, reference compound]
- ΔG ΔGexp. [1]: -11.59 kcal/mol

SMILES: CO/C=C(/C(=O)OC)c1ccccc1Oc1cc(Oc2ccccc2C#N)ncn1 [AZ, azoxystrobin, reference compound]
- ΔG ΔGexp. [1]: -8.92 kcal/mol

SMILES: CO/C=C(/C(=O)OC)c1ccccc1COc1cc(-c2ccccc2OC(=O)c2ccc(F)cc2)nn1C [Compound 6d]
- ΔG ΔGexp. [1]: -9.56 kcal/mol

SMILES: CO/C=C(/C(=O)OC)c1ccccc1COc1cc(-c2ccccc2OC)nn1C [Compound 6a]
- ΔG ΔGexp. [1]: -10.29 kcal/mol

SMILES: CO/N=C(/C(=O)OC)c1ccccc1COc1ccccc1C [KM, kresoxim-methyl, reference compound]
- ΔG ΔGexp. [1]: -9.28 kcal/mol

SMILES: CO/C=C(/C(=O)OC)c1ccccc1COc1cc(-c2ccccc2O)nn1C [Compound 5a]
- ΔG ΔGexp. [1]: -12.19 kcal/mol

SMILES: CO/C=C(/C(=O)OC)c1ccccc1COc1cc(-c2cc(C)ccc2O)nn1C [Compound 5b]
- ΔG ΔGexp. [1]: -11.62 kcal/mol

SMILES: CO/C=C(/C(=O)OC)c1ccccc1COc1cc(-c2cc(Cl)ccc2O)nn1C [Compound 5c]
- Ki [2]: 2.6 ± 0.1 nM
- microscopic inhibition rate constant k+0 [2, 3]: 1.85e+06 ± 30000 M⁻¹ s⁻¹
- microscopic inhibition rate constant k−0 [2, 3]: 0.0048 ± 0.00018 s⁻¹
- Ki fold higher than that measured from succinate-cytochrome c reductase activity inhibition ([2]; DBH2 assay Ki vs SCR assay Ki): about 5 fold
- type of inhibition with respect to substrate ubiquinol ([2]; varying DBH2 20–115 µM): competitive inhibitor
- type of inhibition with respect to substrate cytochrome c ([1]; kobs independent of cytochrome c concentration, 5 nM 5c): non-competitive inhibitor
- kon ([1]; pH 7.4, read-out: apparent rate constant A (association rate constant k+0)): 6.31e+06 ± 360000 M⁻¹ s⁻¹
- koff ([1]; pH 7.4, read-out: apparent rate constant B (dissociation rate constant k−0)): 0.00358 s⁻¹
- fold improved binding affinity compared to AZ ([1]; ratio of Ki values, vs AZ): about 522 fold
- ΔG ΔGexp. [1]: -12.63 kcal/mol

SMILES: CO/C=C(/C(=O)OC)c1ccccc1COc1cc(-c2cc(C)ccc2OC)nn1C [Compound 6b]
- ΔG ΔGexp. [1]: -10.52 kcal/mol

SMILES: CO/N=C(/C(=O)OC)c1ccccc1COc1cc(-c2ccccc2O)nn1C [Compound 5d]
- ΔG ΔGexp. [1]: -11.50 kcal/mol
